Test results as given in US20030225002A1, “Co-therapy for the treatment of migraine comprising anticonvulsant derivatives and anti-migraine agents” (priority 2002, published 2003).

Columns and labels:
[1] = test system: refractory migraine (migraine without aura); assay: Case Study 2: refractory migraine without aura; format: in vivo, human; settings: 75 mg/day topiramate, 20 mg/day CORGARD and 20 mg/day CELEXA
Protocol: The patient was a person with a lifelong history of refractory migraine (migraine without aura), averaging 8 migraines per month. […] The patient was started on topiramate at 25 mg/day, with dosage increasing to 75 mg/day. Simultaneously, the beta-blocker, CORGARD dosage was decreased to 20 mg/day, with CELEXA at 20 mg/day also continued.

subjects with migraine = assay: Clinical Study Trials #1 and #2: severity of phonophobia associated with migraine headaches; format: in vivo, human; settings: for Severity of Phonophobia Associated With Migraine Headaches, Baseline / Severity of Phonophobia Associated With Migraine Headaches, Double-Blind / Severity of Phonophobia Associated With Migraine Headaches, Difference: scale 0 to 3; for Severity of Phonophobia Associated With Migraine Headaches, Baseline / Severity of Phonophobia Associated With Migraine Headaches, Double-Blind: triptan rescue therapy; for Severity of Phonophobia Associated With Migraine Headaches, Double-Blind: Double-Blind Phase; for Severity of Phonophobia Associated With Migraine Headaches, Difference: Double-Blind minus Baseline
Protocol: The primary objective of these studies was to evaluate the safety and efficacy of three doses of topiramate (50, 100, and 200 mg/day) versus placebo in the prophylaxis of migraine based on the change in the monthly (28 day) migraine period rate from the Prospective Baselin,e Period to the Double-Blind Phase. The secondary objectives for the studies were to assess dose response relationship, and to evaluate the effect of prophylactic treatment with topiramate (50, 100, and 200 mg/day) versus placebo on Health-Related Quality of Life (HRQL).
The studies were randomized, double-blind, placebo-controlled, parallel-group, multicenter studies. Male and female subjects were randomized equally to the four treatment groups.
While the IHS criteria was used to establish the diagnosis at study entry, the evaluation of efficacy was based on migraine periods. A migraine period was defined as the length of time between the onset and cessation of painful migraine symptoms. This period could last up to, but no longer than, 24 hours. If the painful symptoms persisted more than 24 hours after their initial onset, this was considered to be a new, distinct migraine period. If symptoms recurred within 24 hours of the initial onset, this was considered part of the same, initial period.
Subjects who completed the Baseline Phase and met the entry criteria were randomized to one of four treatment groups: 50 mg/day topiramate, 100 mg/day topiramate, 200 mg/day topiramate or placebo. The Double-Blind Phase had two periods: Titration and Maintenance, which are described in more detail below.
The Titration Period immediately followed the Baseline Phase and extended for eight weeks (56 days). During this period, subjects randomized to topiramate were started at a dose of 25 mg/day and the daily dose was increased by 25 mg weekly until they reach their assigned dose (or maximum tolerated dose, whichever is less). From the third week of Titration until the end of the Maintenance Period, a maximum of two dose level reductions were permitted for unacceptable tolerability problems. If the subject was still in the Titration Period after a dose reduction, rechallenge may have occurred in an attempt to achieve the subject's assigned dose, and, if unsuccessful, the dose may have been reduced again to the original reduced dose. Subjects who had their study medication dose decreased twice, and were still experiencing unacceptable tolerability problems that warranted additional dose reductions, exited the study. Clinic visits occurred on Day 29 (Visit 3) and Day 57 (Visit 4/End of Titration).
During this 18-week period, the subjects remained on the dose of study medication reached at the end of the Titration Period (the assigned dose or the maximum tolerated dose). If the subject experienced unacceptable tolerability problems, the dose was reduced, only one dose reduction was permitted in the maintenance. No rechallenge was permitted during the Maintenance Period, so that subject continued on the reduced dose for the remainder of the period. Subjects who already had their study medication dose decreased by two levels, and were still experiencing unacceptable tolerability problems that warranted additional dose reductions exited the study. Clinic visits occurred on Day 85 (Visit 5), Day 113 (Visit 6), Day 141 (Visit 7) and Day 183 (Visit 8/ Double-Blind Final Visit or Early Withdrawal).
Subjects were randomized to one of four treatment groups: a) placebo, b) 50 mg/day topiramate, c) 100 mg/day topiramate, or d) 200 mg/day topiramate. All subjects received study medication in a b.i.d. dosing regimen except during the first week of Titration, during which they took single evening doses.
In keeping with good pain management practices, subjects enrolled in these studies were permitted to take acute abortive/rescue medication as indicated for the treatment of pain during migraine/headache attacks. […]

Q: With `CC1(C)O[C@@H]2[C@@H](CO[C@@]3(COS(N)(=O)=O)OC(C)(C)O[C@@H]23)O1` [topiramate, 2,3:4,5-bis-O-(1-methylethylidene)-β-D-fructopyranose sulfamate] as the compound, how does the Headache frequency [1] read?
A: significant decrease in headache frequency

Q: What about the Headache-free time [1] of the same compound?
A: no headache for up to four weeks

Q: And the “Severity of Phonophobia Associated With Migraine Headaches, Baseline” value (“Severity … Baseline” for short) (subjects with migraine; TPM 50 mg)?
A: 1.65

Q: What about the “Severity of Phonophobia Associated With Migraine Headaches, Double-Blind” value (from here on “Severity … Double-Blind”) (subjects with migraine; TPM 50 mg) of the same compound?
A: 1.59

Q: And the “Severity of Phonophobia Associated With Migraine Headaches, Difference” value (from here on “Severity … Difference”) (subjects with migraine; TPM 50 mg)?
A: −0.06

Q: What about the “Severity … Baseline” value (subjects with migraine; TPM 100 mg) of the same compound?
A: 1.72

Q: And the “Severity … Double-Blind” value (subjects with migraine; TPM 100 mg)?
A: 1.58

Q: What about the “Severity … Difference” value (subjects with migraine; TPM 100 mg) of the same compound?
A: −0.15

Q: What about the “Severity … Baseline” value (subjects with migraine; TPM 200 mg) of the same compound?
A: 1.50

Q: What about the “Severity … Double-Blind” value (subjects with migraine; TPM 200 mg) of the same compound?
A: 1.47

Q: And the “Severity … Difference” value (subjects with migraine; TPM 200 mg)?
A: −0.03

Q: And the “Statistical significance of effect, text under Table 5 (in words)” value (subjects with migraine; patients taking 100 mg topiramate in Study 1)?
A: Statistically significant differences in the severity of nausea

Q: And the “Effect on severity of associated phonophobia (in words)” value (subjects with migraine; topiramate with triptan rescue medication vs triptan rescue alone, measurable at 50 mg and 100 mg)?
A: decreased the severity of associated phonophobia
